Results from paper PMC9091059 (Nature biotechnology, 2021).
Like-named read-outs stand apart in the source and are kept apart here.

Columns and labels:
eCBmut = experiment: BRET Gβγ sensor assay, cells expressing eCBmut; assay type: cell-based, human; details: 20 μM 2-AG
eCB2.0 [1] = experiment: Gq-i Ca2+ imaging assay; assay type: cell-based, human; details: HEK293T cells expressing eCB2.0
human CB1R = human CB1R (Homo sapiens, UniProt P21554); experiment: BRET Gβγ sensor assay, cells expressing CB1R; assay type: cell-based; details: 20 μM 2-AG
[2] = system: GRABeCBmut (eCBmut) sensor; assay type: cell-based, human; details: cultured rat cortical neurons, even at 100 μM
eCB2.0 [3] = experiment: BRET Gβγ sensor assay, cells expressing eCB2.0; assay type: cell-based, human; details: 20 μM 2-AG
[4] = system: GRABeCBmut (eCBmut) sensor; experiment: eCBmut fluorescence response to ligands in HEK293T cells; assay type: cell-based, human; details: all concentrations tested
wildtype CB1R = wildtype CB1R (Homo sapiens, UniProt P21554); experiment: Gq-i Ca2+ imaging assay; assay type: cell-based; details: HEK293T cells expressing CB1R
[5] = system: spontaneous transient eCB2.0 signals in cultured neurons; assay type: cell-based, rat
[6] = system: evoked eCB release in dorsolateral striatum (DLS) slices; design: species or system mouse
[7] = system: eCB2.0 fluorescence in hippocampal slices; experiment: 2-photon imaging of eCB2.0 in acute hippocampal CA1 slices; design: species or system mouse
[8] = system: stimulus-evoked eCB2.0 signal in cultured rat cortical neurons; assay type: cell-based; details: 20 electrical pulses, 68 min after application; MAGL (JZL184) or FAAH (URB597) inhibition

Chain of human CB1R (P21554 whole entry): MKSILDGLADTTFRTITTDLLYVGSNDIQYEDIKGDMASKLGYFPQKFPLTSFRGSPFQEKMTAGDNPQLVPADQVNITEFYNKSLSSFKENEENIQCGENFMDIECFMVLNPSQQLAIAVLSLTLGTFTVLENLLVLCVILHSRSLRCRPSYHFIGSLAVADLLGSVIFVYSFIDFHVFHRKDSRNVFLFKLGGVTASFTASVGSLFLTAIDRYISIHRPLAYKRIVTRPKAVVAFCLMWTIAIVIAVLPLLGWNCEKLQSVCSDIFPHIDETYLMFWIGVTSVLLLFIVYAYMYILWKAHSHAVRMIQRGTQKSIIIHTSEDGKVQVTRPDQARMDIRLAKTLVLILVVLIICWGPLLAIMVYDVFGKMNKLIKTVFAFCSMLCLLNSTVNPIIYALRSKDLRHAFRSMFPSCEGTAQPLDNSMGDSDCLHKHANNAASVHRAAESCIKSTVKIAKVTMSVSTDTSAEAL
Chain of wildtype CB1R (P21554 whole entry): as above

## CCCCC/C=C\C/C=C\C/C=C\C/C=C\CCCC(=O)OC(CO)CO [2-AG, 2-arachidonoylglycerol]
eCBmut
  BRET change (Gβγ activation): no effect on BRET
eCB2.0 [1]
  jRGECO1a Ca2+ response (G protein activation via Gαq-i): failed in inducing jRGECO1a response
Human CB1R
  BRET change (Gβγ activation): robust increase in BRET
[2]
  eCBmut fluorescence response: neither 2-AG nor AEA elicited a response
eCB2.0 [3]
  BRET change (Gβγ activation): no effect on BRET
[4]
  eCBmut fluorescence response: no response
Wildtype CB1R
  jRGECO1a Ca2+ response (G protein activation via Gαq-i): increased jRGECO1a fluorescent response in a dose-dependent manner

## O=C(NN1CCCCC1)c1nn(-c2ccc(Cl)cc2Cl)c2c1CCCc1cc(Cl)ccc1-2 [NESS0327]
[5]; NESS0327 1 μM, TTX 1 μM
  effect on spontaneous eCB2.0 transients: no longer observed

## Cc1c(C(=O)NN2CCCCC2)nn(-c2ccc(Cl)cc2Cl)c1-c1ccc(I)cc1 [AM251]
[6]
  effect on electrically evoked eCB2.0 signal: blocked the response
[5]
  effect on spontaneous eCB2.0 transients: no longer observed
[7]
  effect on AEA-induced eCB2.0 fluorescence increase: reversed
  effect on electrically evoked eCB2.0 signal: eliminated the signal induced by even 100 field stimuli

## NC(=O)c1cccc(-c2cccc(OC(=O)NC3CCCCC3)c2)c1 [URB597]
[8]
  effect on decay time constant of evoked eCB2.0 signal: only a slight—albeit significant—effect on the decay time constant

## O=C(Oc1ccc([N+](=O)[O-])cc1)N1CCC(C(O)(c2ccc3c(c2)OCO3)c2ccc3c(c2)OCO3)CC1 [JZL184]
[8]
  effect on decay time constant of evoked eCB2.0 signal: significantly increased the decay time constant

## CCCCC/C=C\C/C=C\C/C=C\C/C=C\CCCC(=O)NCCO [AEA, anandamide]
[4]
  eCBmut fluorescence response: no response
